This note sets out measurements from patent US9164075B2, “Glutathione alkylester isotopologue and method for detecting reactive metabolite” (priority 2011, dated 2015).

The conditions of data set [1]: for NUMBER OF IDENTIFIED REACTIVE METABOLITES (EXAMPLES): rat, 60 min, 10 μmol/L, pH 7.4. On the procedure:
(§1) NADPH (20 mmol/L, […]) was added to the pre-incubated incubation mixture and a reaction (incubation) was started. The final incubation volume was 1 mL. A sample containing no object compound was used as a control.
After incubation at 37° C. for 60 minutes, a 50 mmol/L aqueous dithiothreitol solution (100 μL, 5 μmol) was added to the incubation mixture, and the resultant mixture was subjected to centrifugation at 10,000 g for 5 minutes. The centrifugation supernatant was added to a solid phase extraction column (OASIS HLB 1 cc, 30 mg) that was pre-washed with 1 mL of methanol and activated with 1 mL of purified water. The column was washed with 1 mL of water and 1 mL of 5% methanol solution, and a reaction product was eluted with 1 mL of methanol. The solvent was removed by evaporation under nitrogen flow, and the residue was dissolved in 150 μL of acetonitrile:water (2:8) to prepare an analysis sample.
An AQCUITY UPLC system (WATERS) was used for separation by chromatography. Aliquots (10 μL) of the prepared analysis sample was injected into an AQCUITY UPLC BEH C18 column (2.1×100 mm, 1.7 μm). The separation by chromatography was performed under gradient conditions shown in the following table at a mobile phase flow rate of 0.5 mL/minute.
(§2) The LC column eluate obtained in step 2-1 was introduced into an LTQ XL ion trap mass spectrometer. Ionization was performed in an ESI positive mode (a mode for detecting positively charged ions). The measurement conditions used are shown below (measurement conditions A).
The measurement conditions used are shown below (measurement conditions B).
Among the peaks appearing in the final chromatogram, peaks other than the peaks also appearing in the final chromatogram for the control (FIG. 2 or 13) are considered to be the peaks of trapping agent-reactive metabolite adducts.

For data set [2] the following is noted: rat, 60 min, 10 μmol/L, pH 7.4. On the procedure:
Glutathione ethyl ester (1 mmol/L, 1 μmol) was used as the trapping agent instead of the mixture of glutathione ethyl ester (GSHEE) and glutathione ethyl ester-d5 (GSHEE-d5), and the reaction and measurement were performed in the same manner as in (step 1) and (step 2) described above.
In the MS/MS measurement corresponding to (step 2-3), the MS/MS measurement was performed in a data dependent scan mode in which ions with the strongest intensity in a first spectrum were subjected to collisional activation to thereby obtain a second spectrum. The measurement conditions used are as follows (measurement conditions C).

For data set [3] the following is noted: rat, 60 min, 10 μmol/L, pH 7.4. On the procedure: as §1
After incubation at 37° C. for 60 minutes, the resultant mixture was subjected to centrifugation at 10,000 g for 5 minutes. The centrifugation supernatant was added to a solid phase extraction column (OASIS HLB 1 cc, 30 mg) that was pre-washed with 1 mL of methanol and activated with 1 mL of purified water. The column was washed with 1 mL of water and 1 mL of 5% methanol water, and a reaction product was eluted with 1 mL of methanol. The solvent was removed by evaporation under nitrogen flow, and the residue was dissolved in 150 μL of acetonitrile:water (2:8) to prepare an analysis sample.
An AQCUITY UPLC system (WATERS) was used for separation by chromatography. Aliquots (10 μL) of the prepared analysis sample was injected into an AQCUITY UPLC BEH C18 column (2.1×100 mm, 1.7 μm). The separation by chromatography was performed under the gradient conditions shown in TABLE 3 at a mobile phase flow rate of 0.5 mL/minute.
as §2
The measurement conditions used are shown below (measurement conditions E).
Among the peaks appearing in the final chromatogram, peaks other than the peaks also appearing in the final chromatogram for the control (FIG. 46) are considered to be the peaks of trapping agent-reactive metabolite adducts.
The source holds these as a separate data set.

Data set [4] can be described thus: Reactive metabolite trapping test with glutathione ethyl ester only, data dependent scan mode with Dynamic Exclusion ON (Comparative Example 8). Format: in vitro ADME. The conditions noted are these: rat liver microsomes. On the procedure: Omeprazole was used as the object compound. Measurement was performed in the same manner as in Comparative Example 1 except that the MS/MS measurement corresponding to (step 2-3) was performed in a data dependent scan mode (a Dynamic Exclusion ON mode) in which the MS/MS measurement was performed on ions in descending order of intensity. In the data dependent scan mode (Dynamic Exclusion ON mode), ions for a peak with the strongest intensity among the peaks in a first spectrum are subjected to MS/MS measurement three times. Then these ions are eliminated, and ions with the next strongest intensity are subjected to MS/MS measurement three times. This processing is repeated in order of intensity. The measurement conditions used are as follows (measurement conditions D).

As for `O=C(O)COc1ccc(C(=O)c2cccs2)c(Cl)c1Cl` [tienilic acid], in data set [1], the “judgement of reactive metabolite formation” value (shortened to “judgement”) is “positive” and the “NUMBER OF IDENTIFIED REACTIVE METABOLITES (EXAMPLES)” value is listed as 1. Besides, in data set [2], the “NUMBER OF IDENTIFIED REACTIVE METABOLITES (COMPARATIVE EXAMPLES, GSHEE)” value is listed as 0. The “NUMBER OF IDENTIFIED REACTIVE METABOLITES (COMPARATIVE EXAMPLES, [13C2, 15N]GSH)” value in data set [3] is listed as 1.
With `COc1ccc2[nH]c([S+]([O-])Cc3ncc(C)c(OC)c3C)nc2c1` (centres unmarked) [omeprazole], in data set [1], the “judgement” value is on record as “positive” and the “NUMBER OF IDENTIFIED REACTIVE METABOLITES (EXAMPLES)” value stood at 2. Besides, in data set [2], the “NUMBER OF IDENTIFIED REACTIVE METABOLITES (COMPARATIVE EXAMPLES, GSHEE)” value is given as 1. The “number of types of reactive metabolite found” value in data set [4] is “one”. Further, the “NUMBER OF IDENTIFIED REACTIVE METABOLITES (COMPARATIVE EXAMPLES, [13C2, 15N]GSH)” value in data set [3] came out at 2.
On to `O=c1c(O)c(-c2ccc(O)c(O)c2)oc2cc(O)cc(O)c12` [quercetin], for which, in data set [1], the “judgement” value is given as “positive” and the “NUMBER OF IDENTIFIED REACTIVE METABOLITES (EXAMPLES)” value stood at 3. The “NUMBER OF IDENTIFIED REACTIVE METABOLITES (COMPARATIVE EXAMPLES, GSHEE)” value in data set [2] is 3. In data set [3], the “NUMBER OF IDENTIFIED REACTIVE METABOLITES (COMPARATIVE EXAMPLES, [13C2, 15N]GSH)” value stood at 2.
With `O=C(O)Cc1ccccc1Nc1c(Cl)cccc1Cl` [diclofenac], the “NUMBER OF IDENTIFIED REACTIVE METABOLITES (COMPARATIVE EXAMPLES, GSHEE)” value in data set [2] is reported as 1.
